# Data as given in paper PMC12303080, “Diverse actions of 15 structurally unrelated mitochondrial uncouplers in cells and mice” (Molecular Metabolism, 2025).
# Where two headings read alike, the source gives them in different places.
# What was measured:
# CHO–K1 cells [1] = assay: Seahorse XF-96 OCR dose response of 15 uncouplers (Figure 2); format: cell-based, Cricetulus griseus; details: for EC50: mean OCR (% basal) over first 24 min post injection, ± standard error, four-parameter fit; for Concentration range with sustained enhanced OCR (OCR ≥ 150% basal): tested 0.32–200 μM; for MaxOCR lower than that seen with BAM15: Figure 2
# Method: (§1) Stock solutions of the uncouplers and/or Rotenone/Antimycin A were diluted in Seahorse media to give the final concentration indicated in Figure 1, Figure 2, Figure 3 with 0.4% (v/v) DMSO in wells.
# db/db mice = assay: Four-week treatment by admixture in chow, metabolic phenotyping; details: 4 weeks; for Body weight / weight gain vs db/db controls: 0.15% BAM15, 0.02% OPC-163493, 0.015% and 0.03% ES9, NTZ and NEN both doses; for Blood glucose, HbA1c, glucose tolerance vs control: 0.01% OPC, 0.015% ES9, 0.2% NTZ; for HbA1c: both doses of BAM15, printed 0.3% ES9, 0.4% NTZ; for Fasting and random fed blood glucose: either dose of BAM15, high dose ES9
# Method: Body weight and glucose tolerance of male db/+ and db/db mice was assessed at 8–9 weeks of age to obtain baseline measurements. Db/+ were used as lean metabolically healthy controls and given ad libitum access to chow diet. Db/db mice were stratified into 12 groups using R (V4.4.0).
# Mice were on treatment for a period of four weeks, during which body weight and food intake were measured daily. […] To counter this, food traps were placed beneath hoppers and leftover food in both the traps and hoppers was weighed daily. HbA1c was measured weekly. At the end of the treatment period, a glucose tolerance test was conducted, with fed and fasted bloods collected. At termination, blood was collected via cardiac puncture under isoflurane anaesthesia. Mice were euthanised by cervical dislocation and harvested tissues were flash-frozen in liquid nitrogen and stored at −80 °C.
# Mice were fasted for 6 h and then received intraperitoneal injections of 20% (w/v) dextrose at a dose of 1 g/kg lean body mass. Blood glucose (BG) was measured at the time of fasting (random-fed BG) and then again prior to the commencement of the GTT following the 6-hour daytime fast (fasted BG). […] The rate of glucose clearance was measured using the trapezoidal method for calculation of area under the curve.
# HbA1c was measured once weekly using an A1cNow + Portable HbA1c Test Kit. […] HbA1c was measured in the random-fed state.
# A glucose tolerance test was conducted at the end of the treatment period, with random fed and 6-hour fasted bloods collected. Blood was collected in heparin tubes and kept on ice prior to centrifugation at 2000×g for 10 min at 4 °C to extract plasma. Plasma insulin concentration was determined using the Crystal Chem Ultra-Sensitive Mouse Insulin ELISA kit, according to manufacturers' instructions for the high range (1–64 ng/mL) assay.
# rats [2] = assay: NTZ toxicology study in rats (literature); format: in vivo; details: worked out from rat dose
# SARS-CoV-2 = system: SARS-CoV-2; design: method as in PMID 35237748; details: two 300 mg extended release tablets; placebo […]; cited from earlier work
# [3] = system: CDAA/c mouse model of NASH; design: method as in earlier work; details: cited from earlier work
# rats [4] = system: rats; design: method as in PMID 3889119; details: cited from earlier work
# [5] = Drug exposure / pharmacokinetics after oral gavage; details: male, C57BL/6J, mouse, plasma, 10 mg/kg
# Method: Standards were prepared by spiking known concentrations (0.1, 1, 10, 100 and 1000 ng) of the uncoupler into whole blood prior to extraction. Plasma was obtained by centrifugation at 2000×g for 10 min at 4 °C. Seven microlitres (7 μL) of plasma was precipitated in 100 μL of 90% (v/v) acetonitrile and 10% (v/v) methanol. The resulting solution was vortexed for 5 s and then centrifuged at 21,130×g for 10 min at 4 °C. The supernatant was collected in auto-sampler vials for mass spectrometry.
# Plasma concentration of mitochondrial uncouplers at indicated timepoints was determined by LC-MS/MS. Error bars show SEM, n = 3 per mitochondrial uncoupler.
# [6] = system: Arabidopsis thaliana cells; design: method as in PMID 22006339; details: cited from earlier work
# CHO–K1 cells [7] = assay: OCR in the absence or presence of oligomycin (Supplementary Fig. 6); format: cell-based, Cricetulus griseus; details: 1 μM oligomycin, uncoupler at lowest concentration yielding MaxOCR
# Method: ATP synthase is the major conduit through which protons re-enter the mitochondrial matrix. Thus, we sought to investigate whether the selected uncouplers could stimulate oxygen consumption in the presence of the ATP synthase inhibitor oligomycin.
# Supplementary Figure 6. […] At ~24 minutes, 1 μM of oligomycin or vehicle was injected, followed by the injection of the indicated uncoupler or vehicle at ~44 minutes, and 0.5 μM Rotenone / Antimycin A at ~88 minutes.
# rat hepatocytes = system: rat hepatocytes; design: method as in PMID 15037196, PMID 8726330; details: cited from earlier work
# [8] = Terminal plasma drug concentration by LC-MS/MS; format: in vivo; details: db/db mice, study endpoint; TIZ row: mice fed 0.2% NTZ
# Method: LC-MS/MS was performed using a Shimadzu Prominence LCMS-8030 as previously described.
# Figure 7 Plasma drug concentration and markers of tissue damage in db/db mice at study endpoint. Plasma was collected via cardiac puncture at time of euthanasia. A–E) Terminal plasma drug concentration was measured by LC-MS/MS. F–I) Terminal plasma concentration of liver function indicators (ALT, AST and GLDH) and kidney function indicator (urea). Graphs show mean ± SEM, n = 6–9 per group for plasma drug concentration measurement. Due to the limited volume of samples, not all liver and kidney function tests could be performed for all mice.
# CHO–K1 cells [9] = details: 0.5–50 μM, BAM15 at 5 μM, FCCP at 1 μM
# Method: as §1
# RAW 264.7 cells = details: 0.5–50 μM
# Method: as §1
# (§2) The dashed line indicates basal respiration, defined as the mean OCR over the first 24 minutes of the assay. Error bars show SEM, n = 3 per condition from three separate experiments.
# HEK-293T cells = details: HEK293T; 0.5–50 μM
# Method: as §1, §2
# HeLa cells = details: 0.5–50 μM
# Method: as §1, §2
# Swiss mice = system: Swiss mice; design: method as in PMID 18505478; details: ∼30–105 μg/kg/day in drinking water; cited from earlier work
# humans = details: cited from earlier work
# isolated rat hepatocytes = system: isolated rat hepatocytes; design: method as in PMID 12150871, PMID 31297293; details: read-out: EC50, inhibiting oxygen consumption; cited from earlier work
# [10] = Cricetulus griseus, CHO-K1, 0.4 h, CHO–K1, read-out: EC50 (increase of OCR)
compound,measurement,setting,value
"CC(=O)Oc1ccccc1C(=O)Nc1ncc([N+](=O)[O-])s1 [NTZ, Nitazoxanide]",EC50,CHO–K1 cells [1]; [10],2320 ± 460 nM
same,Body weight / weight gain vs db/db controls,db/db mice,little impact on body weight
same,"Body weight, food intake, or metabolic tissue weights vs control","db/db mice; 0.25% NEN, 0.2% NTZ, 0.01% and 0.02% OPC-163493",not significantly different
same,Gonadal fat less than control group,db/db mice; 0.4% in chow,26%
same,Post-treatment GTT AUC lower than control group,db/db mice; 0.4% in chow,~29%
same,"Blood glucose, HbA1c, glucose tolerance vs control",db/db mice; NEN both doses,did not have significantly lower random-fed or 6-hour fasted blood glucose
same,"Overall metabolic phenotype vs db/db control (Figure 8, words)","db/db mice; OPC-163493 both doses, NTZ 0.2%, NEN both doses",no statistically significant phenotype
same,Liver mass vs db/db control,"db/db mice; both doses of BAM15, low dose NEN, high dose NTZ",statistically decreased liver mass
same,Daily food intake,"db/db mice; both doses of BAM15, low dose of NEN, high dose of NTZ",restored normal food intake
same,HbA1c,db/db mice,lowered HbA1c levels
same,Fasting and random fed blood glucose,db/db mice; high dose NTZ,partial efficacy
same,Increase of liver cholesterol concentration vs db/db control,db/db mice; high dose NTZ (0.4%),~1.7 fold
same,Increase of liver cholesterol concentration vs db/db control,db/db mice; low dose NTZ (0.2%),~1.5 fold
same,Mouse equivalent dose of the rat adverse effect dose,rats [2],~900 mg/kg/day
same,Patients progressed to severe disease,SARS-CoV-2,0.5%
same,Decrease in liver fibrosis,[3]; 100 mg/kg/day,32%
same,Decrease in liver fibrosis,[3]; co-administered with Elafibranor,60%
same,"Doses with increased salivation and lethargy, increased liver and spleen size",rats [4],≥ 450 mg/kg/day
"O=[N+]([O-])c1ccc(NS(=O)(=O)c2ccc(Br)s2)cc1 [ES9, Endosidin 9]",EC50,"CHO–K1 cells [1]; CHO–K1, read-out: EC50 (increase of OCR)",1600 nM
same,Concentration range with sustained enhanced OCR (OCR ≥ 150% basal),CHO–K1 cells [1]; CHO–K1,≤ 100 µM
same,EC50,CHO–K1 cells [1]; [10],1610 ± 410 nM
same,Cmax,[5],72.3 µM
same,Gastrocnemius weight vs control,db/db mice; 0.015% in chow,significantly larger gastrocnemius
same,Gastrocnemius weight vs control,db/db mice; 0.03% in chow,significantly larger gastrocnemius
same,Increase of total liver cholesterol content vs db/db control,db/db mice; 0.03% in chow,~1.7 fold
same,Post-treatment GTT AUC lower than control group,db/db mice; 0.03% in chow,~35%
same,Body weight / weight gain vs db/db controls,db/db mice,non-significant trend for increased weight gain
same,GTT ΔAUC (post minus pre-treatment),"db/db mice; 0.15% and 0.2% BAM15, printed 0.3% ES9",statistically significant protection from worsening glucose tolerance
same,"Blood glucose, HbA1c, glucose tolerance vs control",db/db mice; NEN both doses,did not have significantly lower random-fed or 6-hour fasted blood glucose
same,HbA1c,db/db mice,lowered HbA1c levels
same,Fasting and random fed blood glucose,db/db mice; high dose NTZ,partial efficacy
same,Increase of liver triglyceride concentration vs db/db controls,db/db mice; high dose ES9 (0.03%),~2.7 fold
same,Increase of total liver triglyceride content vs db/db controls,db/db mice; high dose ES9 (0.03%),~3.4 fold
same,Liver triglyceride concentration vs db/db controls,db/db mice; lower dose ES9 (0.015%),significantly increased liver triglyceride concentration
same,Increase in liver wet weight vs db/db control,db/db mice; printed 0.3% ES9 in chow,~25%
same,Concentration increasing respiration (as low as),[6],Endosidin 9 (ES9) • ES9 has not been tested in mouse models of metabolic disease. It was identified in a chemical library screen for inhibitors of endomembrane trafficking and increased respiration in Arabidopsis thaliana cells at concentrations as low as 1 μM [71].
same,Effect of oligomycin on uncoupler-stimulated OCR,CHO–K1 cells [7],largely unaffected by the presence of oligomycin
"CC(=O)C1=C(O)C=C2Oc3c(C(C)=O)c(O)c(C)c(O)c3[C@@]2(C)C1=O [UsAc, (+)-usnic acid]",OCR at 31.6 μM,"CHO–K1 cells [1]; CHO–K1, 31.6 μM",~125 % basal
same,Concentration inducing decline in OCR to sub-basal levels,"CHO–K1 cells [1]; CHO–K1, after ∼40 min of treatment",over 31.6 μM
same,EC50,"CHO–K1 cells [1]; Cricetulus griseus, 0.4 h, CHO–K1, read-out: EC50 (increase of OCR)",430 ± 120 nM
same,Concentrations acutely toxic,rat hepatocytes,"(+)-usnic acid (UsAc) • UsAc has not been tested in mouse models of metabolic disease. Concentrations of 2–5 μM UsAc are acutely toxic to rat hepatocytes [84, 85]. • UsAc is found in the unregulated weight-loss supplement LipoKinetix [86]."
same,Effect of oligomycin on uncoupler-stimulated OCR,CHO–K1 cells [7],largely unaffected by the presence of oligomycin
"O=C(Nc1ncc([N+](=O)[O-])s1)c1ccccc1O [TIZ, tizoxanide]",Terminal plasma drug concentration vs in vitro uncoupling range,[8],lower than the concentration at which oxygen consumption rate was enhanced in vitro
"N#CC(C#N)=NNc1ccc(OC(F)(F)F)cc1 [FCCP, Carbonyl cyanide p-trifluoromethoxyphenylhydrazone]",MaxOCR,"CHO–K1 cells [1]; CHO–K1, 0.32–200 μM, first 24 min post injection",260 % of basal
same,EC50,CHO–K1 cells [1]; [10],310 nM
same,MaxOCR,CHO–K1 cells [9],~260 % basal
same,Stimulation of OCR,RAW 264.7 cells,failed to stimulate OCR above basal levels
same,Stimulation of OCR,HEK-293T cells,failed to stimulate OCR above basal levels
same,Effect of oligomycin on uncoupler-stimulated OCR,CHO–K1 cells [7],largely unaffected by the presence of oligomycin
same,Stimulation of OCR,HeLa cells,failed to stimulate OCR above basal levels
"O=[N+]([O-])c1ccc(O)c([N+](=O)[O-])c1 [DNP, 2,4-Dinitrophenol]",MaxOCR lower than that seen with BAM15,CHO–K1 cells [1]; CHO–K1,~27%
same,EC50,"CHO–K1 cells [1]; Cricetulus griseus, CHO-K1, 0.4 h, read-out: EC50 (increase of OCR), CHO–K1",17000 ± 1180 nM
same,EC50,"CHO–K1 cells [1]; read-out: EC50 (increase of OCR), CHO–K1",17000 nM
same,Lifespan extension,Swiss mice,7%
same,Effect of oligomycin on uncoupler-stimulated OCR,CHO–K1 cells [7],largely unaffected by the presence of oligomycin
same,Body weight lost per week,humans,1.5 kg
same,Weight loss,humans,≤ 1.5 kg/week
same,Increase in metabolic rate,humans; for every 100 mg ingested,11%
"CC(C)(C)c1cc(C=C(C#N)C#N)cc(C(C)(C)C)c1O [TyrA9, Tyrphostin A9]",MaxOCR lower than that seen with BAM15,CHO–K1 cells [1]; CHO–K1,~140%
same,Concentration range with sustained enhanced OCR (OCR ≥ 150% basal),CHO–K1 cells [1]; CHO–K1,≤ 100 µM
same,EC50,CHO–K1 cells [1]; [10],10 nM
same,Effect of oligomycin on uncoupler-stimulated OCR,CHO–K1 cells [7],largely unaffected by the presence of oligomycin
same,EC50,isolated rat hepatocytes,78 µM
